This passage reports Solubility in water results from patent US8835395B2, “Protein peptide hydrogels” (Kansas State University Research Foundation, priority 2010, dated 2014).

The data set is described as follows: Solubility of peptide in neutral water. It counts as physicochemical. To be noted: neutral water without any pH adjustment.

SMILES strings stand for the structures. Where a SMILES comes first, the peptide text is derived from it.

As to `CC[C@H](C)[C@H](NC(=O)[C@H](CC(C)C)NC(=O)[C@@H](N)Cc1ccccc1)C(=O)N[C@H](C(=O)N[C@H](C(=O)N1CCC[C@H]1C(=O)N1CCC[C@@H]1C(=O)NCC(=O)N1CCC[C@H]1C(=O)NCC(=O)NCC(=O)N[C@@H](CC(=O)O)C(=O)NCC(=O)N1CCC[C@H]1C(=O)NCC(=O)NCC(=O)N[C@@H](CC(=O)O)C(=O)O)[C@@H](C)CC)C(C)C` [h5PP^De, FLIVI-PP^D-GPGGDGPGGD] (HELM PEPTIDE1{F.L.I.V.I.P.[dP].G.P.G.G.D.G.P.G.G.D}$$$$V2.0), the Solubility in water entry is reported as “soluble”.
